In general, kinetic solubility refers to the concentration staying in solution when a stock, usually in DMSO, is diluted into the medium.

This note sets out measurements from PubChem BioAssay AID1996.

The structures appear in SMILES notation. Values after ≈ are worked out from the molar mass of the structure shown.

For this data set the following is noted: buffer; pH 7.4; 200.0 µM.
Regarding `C=CC[C@H]1CC(C)=C[C@H](CC=C)[NH2+]1.[Cl-]`, the solubility (kinetic) is > 32.1 µg/mL. Compound `O=S(=O)(NCc1nc(-c2ccccc2)no1)c1ccc(F)cc1` yielded a kinetic solubility of 6.4 µg/mL (≈ 19.2 µM). With `O=C(Nc1ccc(F)cc1)OC1CN2CCC1CC2` (stereo not given), the solubility (kinetic) is > 39.6 µg/mL. Take `Cc1nn(C)cc1C(C)Nc1nc2nonc2nc1N1CCCCC1` (stereo not given): the kinetic solubility was > 51.4 µg/mL.

As to `O=C(OCC(=O)c1ccc(Cl)s1)c1cncc(Br)c1`, the kinetic solubility came to 17.5 µg/mL (≈ 48.5 µM).

Regarding `CN(CC(=O)Nc1ccc(Br)cc1)Cc1ccccc1`, the kinetic solubility came to 25.4 µg/mL (≈ 76.2 µM). Compound `CCCCOc1cccc(C(=O)Nc2ccccc2N2CCCC2)c1` showed a kinetic solubility of 1.2 µg/mL (≈ 3.55 µM). As for `O=C(CCc1ccccc1O)NC1CCCc2ccccc21` (stereo not given), the kinetic solubility is > 44.3 µg/mL. For the compound `Cc1ccc(NC(=O)NC(=O)c2ccccc2)cc1F`, the kinetic solubility was < 0.3 µg/mL. Consider `CCC1Oc2ccccc2N(CC(=O)NC2CCCCC2)C1=O` (stereo not given), for which the kinetic solubility was determined as 43.9 µg/mL (≈ 139 µM). Consider `O=C(Nc1ccc(Cl)cc1)c1cc(-c2cccs2)on1`, for which the kinetic solubility is < 0.3 µg/mL. On to `O=C(c1cccc(F)c1)N1CCC2(CC1)NCCc1[nH]cnc12`, for which the kinetic solubility is > 47.2 µg/mL. `CCOc1ccc(Br)cc1S(=O)(=O)N1CCSC1` returned a solubility (kinetic) of 7.2 µg/mL (≈ 20.4 µM). With `COc1cc(OC)cc(C(=O)NCCCCc2ccccc2)c1`, the kinetic solubility was 1.3 µg/mL (≈ 4.15 µM). As for `O=C(Nc1ccc(S(=O)(=O)N2CCCC2)cc1)c1ccc([N+](=O)[O-])o1`, the kinetic solubility is 6.8 µg/mL (≈ 18.6 µM).

For the compound `CC(CCc1ccccc1)NC(=O)c1cccc(F)c1` (stereo not given), the solubility (kinetic) is 36.6 µg/mL (≈ 135 µM).

As for `Cc1cc(C)cc(NS(=O)(=O)c2cccs2)c1`, the kinetic solubility is > 40.1 µg/mL. The compound `Cc1ccc2c(c1)c1ncn(Cc3ccc(F)cc3)c(=O)c1n2C` registered a solubility (kinetic) of 0.3 µg/mL (≈ 0.934 µM). With `COc1cc(OC)c(C(=O)Nc2cccnc2)cc1OC`, the kinetic solubility is > 43.2 µg/mL. For the compound `O=C1NC2(CCCCCC2)C(=O)N1Cc1ccccc1`, the kinetic solubility is > 40.9 µg/mL.

The compound `O=C(COC(=O)/C=C/c1cccc(F)c1)NC1CCCCCC1` showed a kinetic solubility of 5.6 µg/mL (≈ 17.5 µM).

For `COc1ccc2[nH]c(C(=O)N(Cc3ccccn3)Cc3ccccn3)cc2c1`, the kinetic solubility was > 55.9 µg/mL.

`CC(=O)c1ccc(S(=O)(=O)NC2CCCCCCC2)cc1`: the kinetic solubility was 45.1 µg/mL (≈ 146 µM). With `NC(=O)CC(c1ccccc1)c1ccc2c(c1)OCO2` (stereo not given) the figure was 39.9 µg/mL (≈ 148 µM); with `Cc1ccc(CNS(=O)(=O)c2c(C)n(C)c(=O)n(C)c2=O)cc1`, > 50.6 µg/mL. In turn, `Cc1ccc(S(=O)(=O)N2CCCCC2)cc1NC(=O)CN1C(=O)c2ccccc2S1(=O)=O` came in with a kinetic solubility of 20.7 µg/mL (≈ 43.3 µM). Next, `c1cncc(-c2nc(N3CCOCC3)c3c4c(sc3n2)CCC4)c1`: 1.1 µg/mL (≈ 3.25 µM); `O=C(NCc1ccccn1)Nc1ccc(F)c(Cl)c1`: > 42 µg/mL.

`CC(C)C(=O)Nc1ccccc1Cc1ccccc1`: the solubility (kinetic) was 10.7 µg/mL (≈ 42.2 µM). Compound `Cc1cc(C(=O)NC2CCCCCC2)c2ccccc2n1` displayed a kinetic solubility of 24.2 µg/mL (≈ 85.7 µM). Regarding `CC1CCCC(NC(=O)CSc2nncs2)C1C` (stereo not given), the kinetic solubility is > 42.8 µg/mL. Take `COc1ccc2nc(NC(=O)Nc3ccccc3)sc2c1`: the kinetic solubility is < 0.2 µg/mL. Take `Cc1cccn2c(=O)c(/C=N/O)c(NCc3ccccc3)nc12`: the kinetic solubility is < 0.2 µg/mL. In turn, `C=CCN1C(=O)/C(=C/c2ccc(Br)s2)C(=O)NC1=S` came in with a kinetic solubility of 15.7 µg/mL (≈ 43.9 µM). In the case of `O=C1Cc2ccccc2C(c2ccc(Cl)cc2)N1` (stereo not given), the kinetic solubility worked out at 30.4 µg/mL (≈ 118 µM). For `CC(C)Cc1cc(C(=O)Nc2cccc(O)c2)no1`, the kinetic solubility came out at 13.6 µg/mL (≈ 52.2 µM). With `Cc1cc(N2CCC(C)CC2)nc(-c2ccccc2O)n1` the figure was < 0.2 µg/mL; with `CC(=O)Nc1cccc(NC(=O)c2cccc3cccnc23)c1`, 19.2 µg/mL (≈ 62.9 µM). The compound `CC(C)c1ccc(N=Cc2c(O)n(C3CC3)c(=S)[nH]c2=O)cc1` showed a solubility (kinetic) of 0.5 µg/mL (≈ 1.52 µM). Compound `CC1(C)c2ccccc2N2CC(=O)N[C@@]21/C=C/C=C/c1ccccc1` registered a solubility (kinetic) of 0.9 µg/mL (≈ 2.72 µM). With `CCOC(=O)NC(=O)CSc1ccc2ccccc2n1` the figure was 42.5 µg/mL (≈ 146 µM).

Compound `CCCN1C(=O)c2ccc(C(=O)Nc3cc(C)ccc3O)cc2C1=O` returned a kinetic solubility of 0.9 µg/mL (≈ 2.66 µM). Take `CCn1cc(C(=O)NCc2ccc(OC)cc2)c(=O)c2ccc(C)nc21`: the kinetic solubility turned out to be 0.4 µg/mL (≈ 1.14 µM). Turning to `Cc1c(O)ccc(C(=O)CN2CC(C)OC(C)C2)c1O` (stereo not given), the solubility (kinetic) was > 41.9 µg/mL. Regarding `COc1ccc(-c2cc(C(=O)NCc3ccco3)c3ccccc3n2)c(OC)c1`, the kinetic solubility turned out to be 8.3 µg/mL (≈ 21.4 µM).

On to `COC(=O)C1(NC(=O)NC2CCCCC2)CCCCC1`, for which the solubility (kinetic) is > 42.4 µg/mL. Take `O=C(O)C1CCN(C(=O)COc2ccc(Br)cc2)CC1`: the solubility (kinetic) is > 51.3 µg/mL.

Take `COc1cccc(C2Nc3ccccc3C(=O)N2Cc2ccccc2)c1` (stereo not given): the kinetic solubility worked out at 17.3 µg/mL (≈ 50.2 µM). As for `CN(C)C(CNC(=O)c1ccco1)c1cccs1` (stereo not given), the solubility (kinetic) is > 39.7 µg/mL. `O=C1Nc2cc3c(cc2C1=O)sc1ccccc13` came in with a kinetic solubility of 3.1 µg/mL (≈ 12.2 µM). With `O=C(O)CN1C(=O)/C(=C/c2ccccc2Cl)Oc2ccccc21`, the kinetic solubility is > 49.5 µg/mL. Consider `O=C(Nc1ccccc1C(=O)N1CCCCC1)NC1CCCCC1`, for which the kinetic solubility was > 49.4 µg/mL.

`COc1cccc(C(=O)O/N=C(\N)c2ccc(C)cc2)c1` yielded a solubility (kinetic) of 10.2 µg/mL (≈ 35.9 µM). `Cn1cc(-c2cccc(C(F)(F)F)c2)cc(C#N)c1=O` had a solubility (kinetic) of 7.6 µg/mL (≈ 27.3 µM). This solubility kinetic and that of the compound before are within 1.5-fold of each other. Next, `S=C1NC2(CCCC2)Nc2ccccc21`: 32.5 µg/mL (≈ 149 µM); `CCOc1ccccc1C(=O)NCC(=O)N(C)Cc1ccccc1C`: > 51.1 µg/mL. `Cc1ccccc1-c1nc(-c2ccc(Br)o2)no1`: the solubility (kinetic) stood at 1 µg/mL (≈ 3.28 µM).

Turning to `O=C1c2nccnc2C(=O)N1c1ccc(C(F)(F)F)cc1`, the kinetic solubility turned out to be 39.5 µg/mL (≈ 135 µM). Take `COC(=O)c1csc(S(=O)(=O)N2CCOCC2)c1OC`: the solubility (kinetic) was > 48.2 µg/mL. Consider `CCCCN(C(=O)C1CCCO1)c1c(N)n(CCC)c(=O)[nH]c1=O` (stereo not given), for which the kinetic solubility is > 50.8 µg/mL. Consider `O=C(CNC(=O)c1ccc(Cl)cc1)Nc1ccccc1C(F)(F)F`, for which the kinetic solubility was 3.4 µg/mL (≈ 9.53 µM). In turn, `CN(c1ccccc1)S(=O)(=O)c1ccc(NC(=O)C2CC2)cc1` yielded a solubility (kinetic) of 2.3 µg/mL (≈ 6.96 µM). On to `Cc1cc(=O)oc2cc(OCC(=O)NC3CCCC3)ccc12`, for which the kinetic solubility was found to be 22.9 µg/mL (≈ 76 µM).

Regarding `Cc1ccc2ncnc(Nc3cccc([N+](=O)[O-])c3)c2c1`, the solubility (kinetic) amounted to 5.9 µg/mL (≈ 21 µM). For the compound `C/C(=N\OC(=O)c1ccc(C)cc1)c1c(C)nc2cc(C)ccn12`, the solubility (kinetic) was found to be 6.6 µg/mL (≈ 20.5 µM).

Take `COc1ccc(CCNC(=O)c2cc(=O)c3cc(C)ccc3o2)cc1`: the kinetic solubility amounted to 6.6 µg/mL (≈ 19.6 µM).

With `O=C(Cc1csc(-c2ccccc2)n1)NCc1ccco1`, the kinetic solubility amounted to 39.1 µg/mL (≈ 131 µM). With `O=C(CCNS(=O)(=O)c1ccccc1)N1CCCCCC1`, the kinetic solubility was > 46.6 µg/mL. Turning to `Cc1cccc(N2CCN(CC(=O)NCc3ccccc3)CC2)c1C`, the kinetic solubility stood at 43.6 µg/mL (≈ 129 µM). On to `CCn1c(SCC(=O)Nc2ccc(C)cc2)nc(O)cc1=O`, for which the kinetic solubility was > 47.9 µg/mL.

On to `Cc1cccc(NC(=O)Cn2c(=O)oc3ccccc32)n1`, for which the solubility (kinetic) was > 42.5 µg/mL.

`O=C(NC1CC1)c1sc2cc(F)ccc2c1Cl`: the solubility (kinetic) was 9.4 µg/mL (≈ 34.8 µM).

For the compound `O=C(CCNC(=O)c1ccc(Br)cc1)NCc1ccco1`, the kinetic solubility is > 52.7 µg/mL. Turning to `CSc1cccc(-n2ccc(=O)c(C)c2C)c1`, the kinetic solubility was > 36.8 µg/mL.

As to `CC1(C)C(C(=O)N2CCN(c3ccc(Cl)cc3)CC2)C1(C)C`, the kinetic solubility stood at 0.5 µg/mL (≈ 1.56 µM). `CCN1C(=O)c2cccc3c(Cl)ccc1c23`: the solubility (kinetic) came to 7 µg/mL (≈ 30.2 µM). In turn, `CC(=O)Nc1ccc(NC(=O)CSCc2ccccc2Cl)cc1` returned a solubility (kinetic) of 12.7 µg/mL (≈ 36.4 µM). Turning to `Cc1cc(OC(=O)c2ccc(F)cc2)c([N+](=O)[O-])c(=O)[nH]1`, the kinetic solubility worked out at 43.2 µg/mL (≈ 148 µM).

Compound `O=C1c2ccccc2S(=O)(=O)N1Cc1ccccc1[N+](=O)[O-]` returned a kinetic solubility of 0.7 µg/mL (≈ 2.2 µM). Take `CSc1ccc(C2NC(=O)c3ccccc3N2)cc1` (stereo not given): the kinetic solubility was determined as 2.6 µg/mL (≈ 9.62 µM). This solubility kinetic is about 3.7-fold higher than that of the compound before.

Regarding `Cc1ccc(NC(=O)Cn2c(=O)oc3ccccc32)cc1C`, the solubility (kinetic) turned out to be 4.2 µg/mL (≈ 14.2 µM). This solubility kinetic is about 1.6-fold higher than that of the compound before. Consider `Cc1ccc(C)c(NC(=S)N2CCN(S(C)(=O)=O)CC2)c1`, for which the kinetic solubility was > 49.1 µg/mL. `Cc1cc(C)cc(NC(=O)Oc2ccccc2N2CCCCC2)c1`: the solubility (kinetic) stood at 10.1 µg/mL (≈ 31.1 µM). Consider `CC(=O)c1c(C)[nH]c(C(=O)CN(C)CC(=O)Nc2ccccc2Cl)c1C`, for which the solubility (kinetic) was > 56.4 µg/mL. `CCn1c(/C=C/c2ccc(F)cc2)nc2ccccc2c1=O` registered a solubility (kinetic) of 1.6 µg/mL (≈ 5.44 µM). As for `O=C(CSC1=NCCN1)NC(c1ccccc1)c1ccccc1`, the kinetic solubility amounted to 44 µg/mL (≈ 135 µM). As for `CN1C2CCC1CC(NC(=O)c1ccc([N+](=O)[O-])cc1)C2` (stereo not given), the solubility (kinetic) is > 43.4 µg/mL. With `N#Cc1cnc(Sc2ccccc2)nc1` the figure was 26 µg/mL (≈ 122 µM). Next, `O=C(O)C(=O)O.c1ccc(COc2cccc(CN3CCCCC3)c2)cc1`: 46.2 µg/mL; `CCCS(=O)(=O)c1cscc1NC(=O)c1c(-c2c(F)cccc2Cl)noc1C`: 0.9 µg/mL (≈ 2.03 µM); `Cc1ccccc1OCC(O)CNC1CCCC1.Cl` (stereo not given): 38.2 µg/mL. Compound `Clc1ccc(N=c2ssnc2Cl)cc1` yielded a kinetic solubility of 2.7 µg/mL (≈ 10.3 µM). For the compound `Nc1ncnc(Nc2ccccc2Cl)n1`, the kinetic solubility is 32.8 µg/mL (≈ 148 µM). Compound `COc1ccc(OC)c(NC(=O)C2=C(C)NC(=O)NC2c2cccs2)c1` (stereo not given) registered a kinetic solubility of 25.3 µg/mL (≈ 67.7 µM). Take `COC(=O)c1ccc(Nc2c([N+](=O)[O-])ccc3nonc23)cc1`: the kinetic solubility was < 0.2 µg/mL. Next, `COc1cccc(CC(=O)Nc2nc3c(s2)C(=O)CC(C)(C)C3)c1`: 1.8 µg/mL (≈ 5.23 µM); `Cc1cc(N2CCOCC2)nc(SCC(=O)OCc2ccccc2)n1`: > 53.9 µg/mL; `O=C(O)/C=C/c1cccnc1`: > 22.4 µg/mL. Compound `CCOC(=O)C(CC)Sc1cc(C)nc2ccc(OC)cc12` (stereo not given) displayed a solubility (kinetic) of 34.8 µg/mL (≈ 109 µM). With `Cc1[nH]c2c([N+](=O)[O-])cccc2c1C` the figure was 1.2 µg/mL (≈ 6.31 µM); with `O=C(CCc1nnc(-c2ccccc2)o1)NC1CCCCC1`, > 44.9 µg/mL; with `C#CCNC(=O)c1cc2sccc2n1C`, 30.6 µg/mL (≈ 140 µM). The compound `COc1ccc(CCC(=O)NCCOc2ccc(C)cc2)cc1` showed a solubility (kinetic) of 24 µg/mL (≈ 76.6 µM). As for `CC(NC(=O)COc1ccccc1)C(c1cccs1)N1CCCC1` (stereo not given), the kinetic solubility was > 51.7 µg/mL. With `CCOC(=O)C1=C(c2ccccc2)OC(N)=C(C#N)C1c1cccnc1` (stereo not given) the figure was 35.9 µg/mL (≈ 103 µM).
